From patent US12559464B2, “Quinazolinone dione compounds and uses thereof” (Edgewise Therapeutics, Inc., priority 2023, dated 2026)

Tests used:
[1] = molecular target: T1, myosin ATPase, Porcine Ventricle myofibrils (Sus scrofa, UniProt P79293); experiment: Myofibril ATPase assay, porcine ventricle myofibrils; format: biochemical, porcine (Yucatan minipigs); settings: concentration required to reduce myosin ATP-ase activity by 25%; Porcine Ventricle Prep pCa 25 GEOM_MEAN
T1 construct: Myofibrils from porcine cardiac muscle was isolated from the left ventricle of Yucatan minipigs; tissue Exemplar Genetics; host or cells: left ventricle of Yucatan minipigs, myofibrils
T1 sequence (P79293 whole entry): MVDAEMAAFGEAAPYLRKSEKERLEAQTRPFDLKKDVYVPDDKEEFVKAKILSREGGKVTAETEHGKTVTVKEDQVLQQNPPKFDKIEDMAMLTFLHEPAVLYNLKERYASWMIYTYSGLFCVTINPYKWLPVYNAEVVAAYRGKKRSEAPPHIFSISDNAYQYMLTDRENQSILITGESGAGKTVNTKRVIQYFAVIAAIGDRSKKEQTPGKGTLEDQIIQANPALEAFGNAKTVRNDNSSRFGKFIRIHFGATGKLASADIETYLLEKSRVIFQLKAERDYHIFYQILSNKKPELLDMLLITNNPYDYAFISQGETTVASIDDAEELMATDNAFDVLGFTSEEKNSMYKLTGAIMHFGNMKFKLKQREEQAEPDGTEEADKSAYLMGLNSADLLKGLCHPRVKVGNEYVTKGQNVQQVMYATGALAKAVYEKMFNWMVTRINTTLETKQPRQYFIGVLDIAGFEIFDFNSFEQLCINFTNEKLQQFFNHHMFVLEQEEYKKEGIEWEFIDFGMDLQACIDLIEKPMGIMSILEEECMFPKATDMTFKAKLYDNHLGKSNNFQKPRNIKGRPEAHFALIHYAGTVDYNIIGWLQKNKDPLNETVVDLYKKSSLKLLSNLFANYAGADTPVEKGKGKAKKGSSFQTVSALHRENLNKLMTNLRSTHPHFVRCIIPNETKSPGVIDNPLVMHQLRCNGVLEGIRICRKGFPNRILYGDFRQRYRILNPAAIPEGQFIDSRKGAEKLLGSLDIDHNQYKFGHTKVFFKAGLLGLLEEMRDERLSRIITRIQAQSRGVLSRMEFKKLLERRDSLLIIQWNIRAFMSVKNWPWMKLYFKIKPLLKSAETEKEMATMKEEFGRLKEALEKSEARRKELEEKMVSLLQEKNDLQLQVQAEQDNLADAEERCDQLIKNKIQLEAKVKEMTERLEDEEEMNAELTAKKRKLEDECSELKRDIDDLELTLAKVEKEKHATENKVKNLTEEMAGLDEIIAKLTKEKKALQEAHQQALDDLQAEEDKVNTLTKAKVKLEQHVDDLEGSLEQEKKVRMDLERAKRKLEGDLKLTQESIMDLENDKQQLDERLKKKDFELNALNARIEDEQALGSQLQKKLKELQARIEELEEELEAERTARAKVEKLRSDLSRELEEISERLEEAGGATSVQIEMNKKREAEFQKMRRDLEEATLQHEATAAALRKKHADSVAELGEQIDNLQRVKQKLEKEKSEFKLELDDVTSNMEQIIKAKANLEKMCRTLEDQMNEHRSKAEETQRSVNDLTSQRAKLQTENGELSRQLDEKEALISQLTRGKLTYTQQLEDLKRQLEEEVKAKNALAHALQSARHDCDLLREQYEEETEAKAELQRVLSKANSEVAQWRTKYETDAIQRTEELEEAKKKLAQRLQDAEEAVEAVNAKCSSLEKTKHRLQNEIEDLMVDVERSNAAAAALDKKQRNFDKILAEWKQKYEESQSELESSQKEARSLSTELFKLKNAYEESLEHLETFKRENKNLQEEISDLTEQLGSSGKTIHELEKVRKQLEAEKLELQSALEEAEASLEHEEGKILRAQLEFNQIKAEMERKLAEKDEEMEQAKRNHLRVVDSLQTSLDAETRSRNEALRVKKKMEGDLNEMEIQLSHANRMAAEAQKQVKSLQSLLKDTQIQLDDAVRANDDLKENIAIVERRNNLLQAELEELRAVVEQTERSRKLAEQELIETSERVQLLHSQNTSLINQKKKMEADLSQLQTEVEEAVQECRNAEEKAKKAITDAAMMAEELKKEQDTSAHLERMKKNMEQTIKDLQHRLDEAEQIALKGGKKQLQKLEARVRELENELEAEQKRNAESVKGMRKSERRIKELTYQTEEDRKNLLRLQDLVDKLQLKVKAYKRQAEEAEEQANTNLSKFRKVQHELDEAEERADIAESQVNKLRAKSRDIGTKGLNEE
Procedure, shortened: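 Myofibrils from Yucatan minipig left ventricle; ADP production coupled via PK-LDH to NADH loss, read kinetically at 340 nm every 1.5–2 min for 75 min in PIPES/MgCl2 pH 7.0 buffer. Slopes normalized to vehicle and fit to 4-parameter logistic; values are concentrations giving 75% (inhibition) or 125% (activation) of vehicle activity.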

[2] = tested on: myosin ATPase, Porcine Atria myofibrils; experiment: Myofibril ATPase assay, porcine atria myofibrils; format: biochemical; settings: concentration required to reduce myosin ATP-ase activity by 25%; Porcine Atria Prep pCa 25 GEOM_MEAN
[3] = tested on: myosin ATPase, Rabbit Psoas myofibrils; experiment: Myofibril ATPase assay, rabbit psoas (skeletal) myofibrils; format: biochemical; settings: concentration required to reduce myosin ATP-ase activity by 25%; Rabbit Psoas Prep pCa 25 GEOM_MEAN

Row | SMILES | Porcine Ventricle EC25 (Y75 value) [1] [µM] | Porcine Atria EC25 (Y75 value) [2] [µM] | Rabbit Psoas EC25 (Y75 value) [3] [µM]
1 | CC(c1ccc(F)cc1F)N(C)C(=O)Cn1c(=O)[nH]c2ccccc2c1=O (stereo not drawn) [Compound 521, N-(1-(2,4-difluorophenyl)ethyl)-2-(2,4-dioxo-1,4-dihydroquinazolin-3(2H)-yl)-N-methylacetamide] | 100 | 100 | 1.26
2 | COc1cccc(C(C)NC(=O)Cn2c(=O)[nH]c3ccccc3c2=O)c1 (stereo not drawn) [Compound 522, 2-(2,4-dioxo-1,4-dihydroquinazolin-3(2H)-yl)-N-(1-(3-methoxyphenyl)ethyl)acetamide] | 100 | 100 | 100
3 | CC(NC(=O)Cn1c(=O)[nH]c2ccccc2c1=O)c1ccccc1Cl (stereo not drawn) [Compound 523, N-(1-(2-chlorophenyl)ethyl)-2-(2,4-dioxo-1,4-dihydroquinazolin-3(2H)-yl)acetamide] | 100 | 7.86 | 16.05
4 | CC(NC(=O)Cn1c(=O)[nH]c2ccccc2c1=O)c1ccccc1Br (stereo not drawn) [Compound 524, N-(1-(2-bromophenyl)ethyl)-2-(2,4-dioxo-1,4-dihydroquinazolin-3(2H)-yl)acetamide] | 100 | 73.54 | 11.968
5 | CC(NC(=O)Cn1c(=O)[nH]c2ccccc2c1=O)c1cc(F)ccc1F (stereo not drawn) [Compound 525, N-(1-(2,5-difluorophenyl)ethyl)-2-(2,4-dioxo-1,4-dihydroquinazolin-3(2H)-yl)acetamide] | 100 | 23.51 | 5.727
6 | CC(NC(=O)Cn1c(=O)[nH]c2ccccc2c1=O)c1nccs1 (stereo not drawn) [Compound 601, 2-(2,4-dioxo-1,4-dihydroquinazolin-3(2H)-yl)-N-(1-(thiazol-2-yl)ethyl)acetamide] | 100 | 100 | 100
7 | Cc1nn(C)cc1C(C)NC(=O)Cn1c(=O)[nH]c2ccccc2c1=O (stereo not drawn) [Compound 602, N-(1-(1,3-dimethyl-1H-pyrazol-4-yl)ethyl)-2-(2,4-dioxo-1,4-dihydroquinazolin-3(2H)-yl)acetamide] | 100 | 100 | 100
8 | CC(NC(=O)Cn1c(=O)[nH]c2ccccc2c1=O)c1cnn(C)c1 (stereo not drawn) [Compound 603, 2-(2,4-dioxo-1,4-dihydroquinazolin-3(2H)-yl)-N-(1-(1-methyl-1H-pyrazol-4-yl)ethyl)acetamide] | 100 | 100 | 100
9 | CC(NC(=O)Cn1c(=O)[nH]c2ccccc2c1=O)c1ccco1 (stereo not drawn) [Compound 604, 2-(2,4-dioxo-1,4-dihydroquinazolin-3(2H)-yl)-N-(1-(furan-2-yl)ethyl)acetamide] | 100 | 100 | 100
10 | CC(NC(=O)Cn1c(=O)[nH]c2ccccc2c1=O)C1CCCC1 (stereo not drawn) [Compound 605, N-(1-cyclopentylethyl)-2-(2,4-dioxo-1,4-dihydroquinazolin-3(2H)-yl)acetamide] | 100 | 100 | 100
11 | CC(NC(=O)Cn1c(=O)[nH]c2ccccc2c1=O)c1cccs1 (stereo not drawn) [Compound 606, 2-(2,4-dioxo-1,4-dihydroquinazolin-3(2H)-yl)-N-(1-(thiophen-2-yl)ethyl)acetamide] | 100 | 100 | 100
12 | COc1cc2c(cc1OC)C(NC(=O)Cn1c(=O)[nH]c3ccccc3c1=O)CC2 (stereo not drawn) [Compound 703, N-(5,6-dimethoxy-2,3-dihydro-1H-inden-1-yl)-2-(2,4-dioxo-1,4-dihydroquinazolin-3(2H)-yl)acetamide] | 100 | 100 | 100
13 | O=C(Cn1c(=O)[nH]c2ccccc2c1=O)NCc1ccc(F)cc1F [Compound 5009, N-(2,4-difluorobenzyl)-2-(2,4-dioxo-1,4-dihydroquinazolin-3(2H)-yl)acetamide] | 100 | 100 | 100
